Measured values published in patent EP0671915B1, “USE OF IDAZOXAN AND DERIVATIVES THEREOF IN PREPARING A DRUG FOR TREATING PARKINSON'S DISEASE AND ITS DEVELOPMENT” (PIERRE FABRE MEDICAMENT, priority 1992, dated 1994).

How the values were obtained:
[1] = Clinical study in idiopathic Parkinson's disease patients versus 1-DOPA: motor symptoms; assay type: in vivo; design: key: 0 : pas de changements par rapport à avant le traitement; + a +++ amélioration; + a +++ amélioration; + a +++ amélioration; settings: oral, 4 weeks; for symptômes précoces, persistance de l'amélioration après traitement / symptômes précoces, pendant traitement: eye blinking; for symptômes précoces, persistance de l'amélioration après traitement / symptômes tardifs, persistance de l'amélioration après traitement: after end of treatment; for symptômes précoces, pendant traitement / symptômes tardifs, pendant traitement: during treatment; for symptômes tardifs, persistance de l'amélioration après traitement / symptômes tardifs, pendant traitement: hypokinesia
Procedure: 20 patients ont été sélectionnés répondant aux critères idiopathiques de la maladie de Parkinson et une étude a été menée contre la 1-DOPA.
Les administrations sont effectuées pendant 4 semaines par voie orale dans une gamme de dose de 500 mg à 4 g par jour pour la 1-DOPA, et pour l'Idazoxan d'une dose initiale de 3 fois 5 mg par jour croissant à un maximum de 3 fois 40 mg par jour, le clinicien déterminant la posologie exacte pour chaque patient.
L'efficacité des traitements a été mesurée sur les symptômes moteurs, du type tremblement d'action, d'intention, de repos, sur l'hypokinésie (symptômes tardifs) et le clignement des paupières (symptôme précoce de la maladie). Les observations ont été faites pendant le traitement et après arrêt du traitement pour mettre en évidence la persistance éventuelle de l'amélioration des symptômes.

[2] = test system: neurones dopaminergiques; experiment: Mouse model of DSP4 + MPTP induced degeneration: cortical noradrenaline and striatal dopamine levels; assay type: in vivo, souris; design: key to Taux de NA cortical / Taux de DA striatale: * à *** niveau de dégénérescence estimé par la diminution des taux de NA cortical et DA striatale; * à *** niveau de dégénérescence estimé par la diminution des taux de NA cortical et DA striatale; * à *** niveau de dégénérescence estimé par la diminution des taux de NA cortical et DA striatale; settings: for Taux de DA striatale / Taux de NA cortical: mice given DSP4 and MPTP, then treated, measured after end of treatment, symbol = level of degeneration
[3] = depression; 5 to 40 mg, 3 times a day for 4 weeks; versus placebo; cited from earlier work
[4] = test system: voie nigro-striée; experiment: Squirrel monkey MPTP model with noradrenergic lesion (protocol analogous to Mavridis et al.); assay type: in vivo, singe écureuil; settings: behavioural, biochemical and histological results
Description: L'emploi de l'idazoxan a également été étudié chez le singe écureuil selon un protocole analogue à celui de M. MAVRIDIS et al. Neuroscience 41,507 (1991).
Les résultats comportementaux, biochimiques et histologiques montrent qu'une lésion du système noradrénergique induit une dégénération de la voie nigrostriée après administration du MPTP.

Compound	symptômes précoces, persistance de l'amélioration après traitement [1]	symptômes précoces, pendant traitement [1]	symptômes tardifs, persistance de l'amélioration après traitement [1]	symptômes tardifs, pendant traitement [1]	Taux de DA striatale [2]	Taux de NA cortical [2]	échelle de Hamilton [3]	dégénérescence de neurones dopaminergiques provoquée par le DSP4 et la MPTP ([2]; shown by slower fall of striatal dopamine compared with 1-DOPA (Groupe F) or apomorphine (Groupe G))	effet de la lésion de la voie nigro-striée [4]
N[C@@H](Cc1ccc(O)c(O)c1)C(=O)O [1-DOPA, reference compound]	0	+++	0	+++	–	–	–	–	–
CN1CCc2cccc3c2[C@H]1Cc1ccc(O)c(O)c1-3 [G, apomorphine, reference compound]	–	–	–	–	***	*	–	–	–
c1ccc2c(c1)OCC(C1=NCCN1)O2 (stereo not drawn) [idazoxan, 2-(2-(1,4-benzodioxanyl))-2-imidazoline]	++	++	+	+	*	*	amélioration significative	ralentissement de la dégénérescence de neurones dopaminergiques	diminue l'effet de la lésion de la voie nigro-striée et améliore l'évolution
